Read-outs that look alike come from different tables or passages of the source.
Tests used:
[1] = system: Gli-luciferase activity; experiment: Reporter gene assay (RGA) in TMHh12 cells, antagonism of Gli-luciferase activity in the presence of a Smo agonist; type: cell-based
Description: Activity of the compounds was evaluated using a reporter gene assay (RGA) in TMHh12 cells.

[2] = biological target: mouse Smoothened receptor (Mus musculus, UniProt P56726); experiment: Smo binding assay, displacement of radio-labeled smoothened agonist, filter binding format (mouse); conditions: displacement of small molecule agonist of Smoothened, read-out: Mouse Smo bdg., IC50
Description: A Smo binding assay was developed using radio-labeled smoothened agonist for compound competition.

[3] = 25 nM small molecule Smo agonist, read-out: RGA (25 nM Smo agonist) IC50
[4] = read-out: RGA (1 nM Smo agonist) IC50, 1 nM small molecule Smo agonist

Sequence of mouse Smoothened receptor (P56726 33-793): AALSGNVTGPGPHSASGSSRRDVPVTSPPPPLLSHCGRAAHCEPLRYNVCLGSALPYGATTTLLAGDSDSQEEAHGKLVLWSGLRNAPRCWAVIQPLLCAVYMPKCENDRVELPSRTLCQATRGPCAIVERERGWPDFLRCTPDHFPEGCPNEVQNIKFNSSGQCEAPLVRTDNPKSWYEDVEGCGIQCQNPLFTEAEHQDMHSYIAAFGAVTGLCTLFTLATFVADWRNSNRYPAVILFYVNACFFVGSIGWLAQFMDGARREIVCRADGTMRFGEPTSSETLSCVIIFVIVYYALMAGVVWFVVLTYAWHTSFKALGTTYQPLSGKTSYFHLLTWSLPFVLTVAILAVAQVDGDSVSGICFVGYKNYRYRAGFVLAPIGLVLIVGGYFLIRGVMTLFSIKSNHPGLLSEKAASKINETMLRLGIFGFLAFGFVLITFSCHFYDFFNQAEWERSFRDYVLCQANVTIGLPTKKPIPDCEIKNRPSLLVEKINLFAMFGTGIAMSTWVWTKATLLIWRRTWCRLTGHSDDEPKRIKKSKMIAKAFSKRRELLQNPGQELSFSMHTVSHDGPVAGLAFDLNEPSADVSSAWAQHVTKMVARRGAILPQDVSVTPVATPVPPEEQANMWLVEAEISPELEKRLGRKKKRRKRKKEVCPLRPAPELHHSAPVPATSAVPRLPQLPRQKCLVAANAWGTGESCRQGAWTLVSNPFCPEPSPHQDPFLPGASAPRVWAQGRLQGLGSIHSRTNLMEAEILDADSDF

| Structure (SMILES) | IC50 [1, 3] [nM] | IC50 [1, 4] [nM] | IC50 [2] [nM] |
| --- | --- | --- | --- |
| N#Cc1ccc(N2CCN(c3nnc(Cc4ccccc4)c4ccccc34)CC2)nc1 [Example 4] |  |  | 1000 to 10000 |
| c1ccc(N2CCN(c3nnc(Cc4ccncc4)c4ccccc34)CC2)cc1 [Example 6] | 10000 to 40000 | 1000 to 10000 |  |
| Cc1cc(Cc2nnc(N3CCN(c4ccccc4)CC3)c3ccccc23)ccn1 [Example 11] | 10000 to 40000 | 1000 to 10000 |  |
| c1ccc(Cc2nnc(N3CCC(c4ccccc4)CC3)c3ccccc23)cc1 [Example 12] | 1000 to 10000 | 1000 to 10000 | 10000 to 40000 |
| c1ccc(C2CCN(c3nnc(Cc4ccncc4)c4ccccc34)CC2)cc1 [Example 13] | 1000 to 10000 | 1000 to 10000 | 1000 to 10000 |
| Cc1cc(Cc2nnc(N3CCC(c4ccccc4)CC3)c3ccccc23)ccn1 [Example 14] | 1000 to 10000 | 1000 to 10000 |  |
| c1ccc2c(N3CCN(c4cnccn4)CC3)nnc(Cc3ccncc3)c2c1 [Example 20] |  | 1000 to 10000 | 1000 to 10000 |
| Cc1cc(Cc2nnc(N3CCN(c4ccccn4)CC3)c3ccccc23)ccn1 [Example 22] | 10000 to 40000 | 1000 to 10000 |  |
| c1ccc(N2CCN(c3nnc(Cc4ccncc4)c4ccccc34)CC2)nc1 [Example 23] | 10000 to 40000 | 1000 to 10000 | 10000 to 40000 |
| c1ccc2c(N3CCN(c4ccncc4)CC3)nnc(Cc3ccncc3)c2c1 [Example 26] |  | 1000 to 10000 | 1000 to 10000 |
| Cc1ccc(N2CCN(c3nnc(Cc4ccncc4)c4ccccc34)CC2C)cc1 (stereo not drawn) [Example 28] | 1000 to 10000 | 1000 to 10000 | 1000 to 10000 |
| Cc1ccc(N2CCN(c3nnc(Cc4ccnc(C)c4)c4ccccc34)CC2C)cc1 (stereo not drawn) [Example 29] | 10000 to 40000 | 1000 to 10000 | 10000 to 40000 |
| Clc1ccc(N2CCN(c3nnc(Cc4ccccc4)c4ccccc34)CC2)cc1Cl [Example 30] | 1000 to 10000 | 100 to 1000 | 1000 to 10000 |
| c1ccc(Cc2nnc(N3CCN(c4ccc5ccccc5c4)CC3)c3ccccc23)cc1 [Example 31] | 1000 to 10000 | 100 to 1000 | 100 to 1000 |
| c1ccc2cc(N3CCN(c4nnc(Cc5ccncc5)c5ccccc45)CC3)ccc2c1 [Example 32] | 1000 to 10000 | 100 to 1000 | 100 to 1000 |
| Cc1cc(Cc2nnc(N3CCN(c4ccc5ccccc5c4)CC3)c3ccccc23)ccn1 [Example 33] | 1000 to 10000 | 1000 to 10000 | 100 to 1000 |
| c1ccc(Cc2nnc(N3CCN(c4cccc5ccccc45)CC3)c3ccccc23)cc1 [Example 34] | 1000 to 10000 | 100 to 1000 | 1000 to 10000 |
| Cc1cc(Cc2nnc(N3CCN(c4cccc5ccccc45)CC3)c3ccccc23)ccn1 [Example 35] | 1000 to 10000 | 1000 to 10000 |  |
| c1ccc2c(N3CCN(c4nnc(Cc5ccncc5)c5ccccc45)CC3)cccc2c1 [Example 36] | 1000 to 10000 | 100 to 1000 | 1000 to 10000 |
| c1ccc(Cc2nnc(N3CCN(c4ccncc4)CC3)c3ccccc23)cc1 [Example 37] | 1000 to 10000 | 100 to 1000 | 1000 to 10000 |
| Cc1ccccc1N1CCN(c2nnc(Cc3ccccc3)c3ccccc23)CC1 [Example 38] | 1000 to 10000 | 1000 to 10000 | 10000 to 40000 |
| CN(C)CCNC(=O)c1ccc(N2CCN(c3nnc(Cc4ccccc4)c4ccccc34)CC2)nc1 [Example 54h] | 100 to 1000 | 100 to 1000 |  |
| NCc1ccc(N2CCN(c3nnc(Cc4ccncc4)c4ccccc34)CC2)cc1 [Example 72] | 10000 to 40000 | 1000 to 10000 |  |
| N#Cc1ccc(N2CCN(c3cnc(Cc4cccc(C#N)c4)c4ccccc34)CC2)nc1 [Example 80] | 10000 to 40000 | 1000 to 10000 |  |
| COC(=O)CC(SCC(=O)NCc1ccc(N2CCN(c3nnc(Cc4ccccc4)c4ccccc34)CC2)nc1)C(=O)OC (stereo not drawn) [Example 215] | 1000 to 10000 | 100 to 1000 |  |

Next, values leading:

| IC50 [1, 3] [nM] | IC50 [1, 4] [nM] | IC50 [2] [nM] | Structure (SMILES) |
| --- | --- | --- | --- |
| 100 to 1000 | 100 to 1000 | < 100 | FC(F)(F)c1ccc(N2CCCN(c3nnc(Cc4ccccc4)c4ccccc34)CC2)nc1 [Example 3] |
| 100 to 1000 | < 100 | < 100 | CC(C)(C)c1ccc(N2CCN(c3nnc(Cc4cc(Cl)cc(Cl)c4)c4ccccc34)CC2)nc1 [Example 9] |
| 1000 to 10000 | < 100 | 100 to 1000 | FC(F)(F)c1cnc(N2CCCN(c3nnc(Cc4ccccc4)c4ccccc34)CC2)c(Cl)c1 [Example 17] |
| 100 to 1000 | < 100 | < 100 | c1ccc(Cc2nnc(N3CCN(c4ccc5ccccc5n4)CC3)c3ccccc23)cc1 [Example 18] |
| 100 to 1000 | < 100 | < 100 | N#Cc1ccc(N2CCCN(c3nnc(Cc4ccccc4)c4ccccc34)CC2)nc1 [Example 19] |
| 1000 to 10000 | 100 to 1000 | 100 to 1000 | c1ccc(Cc2nnc(N3CCN(c4cnccn4)CC3)c3ccccc23)cc1 [Example 21] |
| 1000 to 10000 | 100 to 1000 | 100 to 1000 | c1ccc(Cc2nnc(N3CCN(c4ccccn4)CC3)c3ccccc23)cc1 [Example 24] |
| 1000 to 10000 | < 100 | 100 to 1000 | c1ccc(Cc2nnc(N3CCN(c4ncccn4)CC3)c3ccccc23)cc1 [Example 25] |
| 1000 to 10000 | 100 to 1000 | 1000 to 10000 | Cc1ccc(N2CCN(c3nnc(Cc4ccccc4)c4ccccc34)CC2C)cc1 (stereo not drawn) [Example 27] |
| 100 to 1000 | < 100 | 100 to 1000 | c1ccc(Cc2nnc(N3CCCN(c4ncccn4)CC3)c3ccccc23)cc1 [Example 40] |
| 100 to 1000 | < 100 | 100 to 1000 | Cc1ccnc(N2CCCN(c3nnc(Cc4ccccc4)c4ccccc34)CC2)n1 [Example 41] |
| 100 to 1000 | < 100 | < 100 | CCCc1cnc(N2CCN(c3nnc(Cc4ccccc4)c4ccccc34)CC2)nc1 [Example 42] |
| < 100 | < 100 | < 100 | CCc1cnc(N2CCN(c3nnc(Cc4ccccc4)c4ccccc34)CC2)nc1 [Example 43] |
| 100 to 1000 | < 100 | < 100 | CCCc1cnc(N2CCCN(c3nnc(Cc4ccccc4)c4ccccc34)CC2)nc1 [Example 44] |
| 100 to 1000 | < 100 | < 100 | CCc1cnc(N2CCCN(c3nnc(Cc4ccccc4)c4ccccc34)CC2)nc1 [Example 45] |
| < 100 | < 100 | < 100 | Cc1ccnc(N2CCN(c3nnc(Cc4ccccc4)c4ccccc34)CC2)n1 [Example 47] |
| 100 to 1000 | < 100 | 100 to 1000 | CN(CCO)C(=O)c1ccc(N2CCN(c3nnc(Cc4ccccc4)c4ccccc34)CC2)nc1 [Example 54c, 6-[4-(4-Benzyl-phthalazin-1-yl)-piperazin-1-yl]-N-(2-hydroxy-ethyl)-N-methyl-nicotinamide] |
| 100 to 1000 | < 100 | 100 to 1000 | O=C(NCCO)c1ccc(N2CCN(c3nnc(Cc4ccccc4)c4ccccc34)CC2)nc1 [Example 54e] |
| 100 to 1000 | < 100 |  | NCc1ccc(N2CCN(c3nnc(Cc4ccccc4)c4ccccc34)CC2)nc1 [Example 71] |
| 100 to 1000 | < 100 |  | CCN1CCOc2cc3c(cc21)Oc1cc2c(cc1=N3)OCC[N+]=2CCCCCC(=O)NCc1ccc(N2CCN(c3nnc(Cc4ccccc4)c4ccccc34)CC2)nc1 [Example 74] |

Source: patent US8536168B2 (Novartis AG, priority 2007, dated 2013)
